From US10183021B2, “sGC stimulators” (Ironwood Pharmaceuticals, Inc., priority 2013, dated 2019) come the findings set out here.

Each structure is given as a SMILES string.

The target in assay [1] is T1, soluble guanylate cyclase (sGC) (Homo sapiens (Human), UniProt Q02108+Q02153). Kind of assay: sGC-HEK-cGMP assay, new protocol with DETA-NONOate, LC/MS detection (Example 2C). It is filed as cell-based. The note with it: read-out: Absolute EC50 (uM) - binned. The method, then: Human embryonic kidney cells (HEK293), endogenously expressing soluble guanylate cyclase (sGC), were used to evaluate the activity of test compounds. Compounds stimulating the sGC enzyme should cause an increase in the intracellular concentration of cGMP. HEK 293 cells were seeded in Dulbecco's Modification of Eagle's Medium supplemented with fetal bovine serum (10% final) and penicillin (100 U/mL)/streptomycin (100 μg/mL) in a 50 μL volume at a density of 1.5×10^4 cells/well in a poly-D-lysine coated 384 well flat bottom plate. Cells were incubated overnight at 37° C. in a humidified chamber with 5% CO2. Medium was aspirated and cells were washed with 1× Hank's Buffered Saline Salt Solution (50 μL). Cells were then incubated for 15 minutes at 37° C. with 50 μL of a 0.5 mM 3-isobutyl-1-methylxanthine (IBMX) solution. Test article and Diethylenetriamine NONOate (DETA-NONOate) solutions (x μM concentration for test article solution and 10 μM concentration for DETA-NONOate solution; wherein x is one of the following concentrations);
were then added to the assay mixture and the resulting mixture incubated at 37° C. for 20 minutes. After the 20 minute incubation, the assay mixture was aspirated and 10% acetic acid containing 150 ng/mL+3-cGMP (internal standard for LCMS) (50 μL) was added to the cells. The plate was incubated at 4° C. for 30 minutes in the acetic acid solution to stop the reaction and lyse the cells. The plates were then centrifuged at 1,000 g for 3 minutes at 4° C. and the supernatant transferred to a clean reaction plate for LCMS analysis.
cGMP concentrations were determined from each sample using the LCMS conditions below (Table 5) and calculated standard curve.
Data were normalized to a high control using the following equation: 100*(Sample−Low Control)/(High Control−Low Control), where the low control is the average of 16 samples treated with 1% DMSO, and the high control is the average of 16 samples treated with 30 μM of 1-329 Data were fit using a 4-parameter fit (log(agonist) vs. response—variable slope) using GraphPad Prism Software v.5. n=2 for all compounds. […] Compounds failing to elicit a minimum response of 50% are reported as >30 μM.

The target in assay [2] is T1, soluble guanylate cyclase (sGC). Kind of assay: sGC-HEK-cGMP assay with SNP incubation, LC/MS detection (Example 2A). The note with it: HEK293 cells, 10 μM SNP, LC/MS detection; for Emax: 100% = BAY 41-2272 at 10 μM, read-out: HEK assay Emax - unconstrained (%); for EC50: top of curve not fitted to 100%, read-out: HEK assay EC50 - unconstrained. Type of assay: cell-based. In a few lines: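 HEK293 cells with endogenous sGC were pretreated 15 min at 37 °C with 0.5 mM IBMX, then exposed 10 min at 37 °C to compound (added from 0.0001–30 μM solutions) plus SNP (from 10 μM solution). After 0.1 M HCl lysis, cGMP was quantified by LC/MS against a standard curve.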

T1 sequence (Q02153 whole entry): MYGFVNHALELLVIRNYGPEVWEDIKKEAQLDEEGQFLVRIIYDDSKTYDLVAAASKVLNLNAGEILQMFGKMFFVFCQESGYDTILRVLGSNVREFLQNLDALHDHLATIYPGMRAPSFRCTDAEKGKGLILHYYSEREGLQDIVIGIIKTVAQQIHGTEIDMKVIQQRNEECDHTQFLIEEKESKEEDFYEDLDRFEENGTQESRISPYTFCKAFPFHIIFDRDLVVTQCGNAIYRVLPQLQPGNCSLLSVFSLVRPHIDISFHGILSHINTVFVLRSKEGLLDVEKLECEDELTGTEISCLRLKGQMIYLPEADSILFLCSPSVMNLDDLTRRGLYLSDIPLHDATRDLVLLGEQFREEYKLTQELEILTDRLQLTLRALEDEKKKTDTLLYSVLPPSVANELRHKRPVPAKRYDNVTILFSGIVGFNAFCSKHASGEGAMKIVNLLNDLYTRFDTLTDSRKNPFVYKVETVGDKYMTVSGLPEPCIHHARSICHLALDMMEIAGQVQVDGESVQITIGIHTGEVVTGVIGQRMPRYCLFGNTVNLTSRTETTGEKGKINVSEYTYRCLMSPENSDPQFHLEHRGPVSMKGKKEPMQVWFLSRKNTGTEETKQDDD
T1 sequence (Q02108 whole entry): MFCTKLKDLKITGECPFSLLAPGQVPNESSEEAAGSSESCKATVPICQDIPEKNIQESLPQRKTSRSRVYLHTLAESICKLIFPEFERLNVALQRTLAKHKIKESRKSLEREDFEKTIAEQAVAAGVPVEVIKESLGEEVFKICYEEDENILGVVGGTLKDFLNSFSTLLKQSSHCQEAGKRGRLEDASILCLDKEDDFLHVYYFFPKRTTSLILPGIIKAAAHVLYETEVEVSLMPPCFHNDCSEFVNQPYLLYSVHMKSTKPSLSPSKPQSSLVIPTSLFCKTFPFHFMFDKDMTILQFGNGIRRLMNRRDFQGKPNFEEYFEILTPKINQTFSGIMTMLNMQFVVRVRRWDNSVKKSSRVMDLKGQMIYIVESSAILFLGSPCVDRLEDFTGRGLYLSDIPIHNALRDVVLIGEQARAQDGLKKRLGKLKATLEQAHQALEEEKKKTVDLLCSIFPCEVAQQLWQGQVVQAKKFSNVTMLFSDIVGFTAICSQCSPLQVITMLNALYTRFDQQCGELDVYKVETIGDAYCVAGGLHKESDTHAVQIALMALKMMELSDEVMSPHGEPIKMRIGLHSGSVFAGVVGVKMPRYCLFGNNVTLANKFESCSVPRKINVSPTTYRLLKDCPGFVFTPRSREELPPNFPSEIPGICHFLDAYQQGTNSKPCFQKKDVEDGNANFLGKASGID

What is called EC50 is the concentration needed to bring the measured effect to its halfway point. `O=C(O)[C@H]1[C@H]2CC[C@H](C2)[C@H]1Nc1nc(-c2cc(-c3ccon3)n(Cc3ccccc3F)n2)ncc1F` (racemic) [Compound I-379]: the half-maximal effective concentration (EC50) in assay [1] was less than 0.1 µM.

`O=C(O)[C@H]1[C@@H](Nc2nc(-c3cc(-c4ccon4)n(Cc4ccccc4F)n3)ncc2F)[C@@H]2CC[C@H]1O2` (racemic) [Compound I-384]: in assay [1], the EC50 is greater than 1 µM.

`O=C(Nc1ccnc(-c2cc(-c3ccon3)n(Cc3ccccc3F)n2)n1)C(F)(F)F` [Compound I-164]: the EC50 in assay [1] was 0.101 to 1 µM.

What is called Emax is the size of the effect at its maximum, as opposed to the concentration needed. Turning to `CCC(C)(C)C1(C(=O)O)CCN(c2nc(-c3cc(-c4ccon4)n(Cc4ccccc4F)n3)ncc2F)CC1` [Compound I-256], in assay [2], the Emax is 80 to 100% and the EC50 lay in the range of 100 to 500 nM.

With `CC(C)CC(Nc1nc(-c2cc(-c3ccon3)n(Cc3ccccc3F)n2)ncc1F)C(=O)NS(C)(=O)=O` (centres unmarked) [Compound I-259], in assay [2], the Emax fell in the range of 100 to 120% and the EC50 was 100 to 500 nM.

Take `CC1(C)CCC(C(=O)O)N(c2nc(-c3cc(-c4ccon4)n(Cc4ccccc4F)n3)ncc2F)C1` (centres unmarked) [Compound I-268]: the EC50 in assay [1] is less than 0.1 µM.

As for `O=C(O)C12CC(Nc3nc(-c4cc(-c5ccon5)n(Cc5ccccc5F)n4)ncc3F)(C1)C2` [Compound I-269], in assay [1], the concentration for a half-maximal effect (EC50) was greater than 1 µM.

With `CC(C)[C@@H](C(=O)O)N(C)c1ccnc(-c2cc(-c3ccon3)n(Cc3ccccc3F)n2)n1` [Compound I-272], in assay [2], the Emax fell in the range of 60 to 80% and the EC50 was in the range of 100 to 500 nM.

For the molecule `O=C(O)CN(CC(F)(F)F)c1nc(-c2cc(-c3ccon3)n(Cc3ccccc3F)n2)ncc1F` [Compound I-273], in assay [2], the Emax lay in the range of 60 to 80% and the EC50 fell in the range of 500 to 1000 nM.

Consider `CN(Cc1cccc(C(=O)O)c1)c1nc(-c2cc(-c3ccon3)n(Cc3ccccc3F)n2)ncc1F` [Compound I-274], for which, in assay [2], the maximal effect (Emax) lay in the range of 100 to 120% and the EC50 was 1 to 100 nM.

`CN(Cc1ccc(C(=O)O)cc1)c1nc(-c2cc(-c3ccon3)n(Cc3ccccc3F)n2)ncc1F` [Compound I-275]: in assay [2], the Emax fell in the range of 80 to 100% and the EC50 lay in the range of 1 to 100 nM.

Regarding `Fc1ccccc1Cn1nc(-c2ncc(F)c(Nc3nnn[nH]3)n2)cc1-c1ccon1` [Compound I-276], in assay [2], the Emax is 40 to 60% and the EC50 fell in the range of 100 to 500 nM.

As to `CC(C)(CC(=O)O)Nc1nc(-c2cc(-c3ccon3)n(Cc3ccccc3F)n2)ncc1F` [Compound I-277], in assay [2], the Emax lay in the range of 60 to 80% and the EC50 fell in the range of 100 to 500 nM.

In the case of `O=c1ccc(CNc2nc(-c3cc(-c4ccon4)n(Cc4ccccc4F)n3)ncc2F)c[nH]1` [Compound I-278], in assay [2], the Emax was in the range of 80 to 100% and the EC50 lay within 100 to 500 nM.

Regarding `CN(Cc1ccccc1C(=O)O)c1nc(-c2cc(-c3ccon3)n(Cc3ccccc3F)n2)ncc1F` [Compound I-279], in assay [2], the Emax is 80 to 100% and the EC50 was 100 to 500 nM.

As for `O=C(O)c1ccc(CNc2nc(-c3cc(-c4ccon4)n(Cc4ccccc4F)n3)ncc2F)cc1` [Compound I-280], in assay [2], the Emax is 100 to 120% and the EC50 lay within 100 to 500 nM.

Regarding `O=C(NS(=O)(=O)N1CCN(c2nc(-c3cc(-c4ccon4)n(Cc4ccccc4F)n3)ncc2F)CC1)C1CC1` [Compound I-285], in assay [2], the Emax is 100 to 120% and the EC50 is 1 to 100 nM.

As to `Oc1ccc(CNc2nc(-c3cc(-c4ccon4)n(Cc4ccccc4F)n3)ncc2F)cc1` [Compound I-286], in assay [2], the Emax lay in the range of 80 to 100% and the EC50 is 1 to 100 nM.

As to `CS(=O)(=O)c1ccc(CNc2nc(-c3cc(-c4ccon4)n(Cc4ccccc4F)n3)ncc2F)cc1` [Compound I-287], in assay [2], the Emax is 80 to 100% and the EC50 lay in the range of 100 to 500 nM.

In the case of `Oc1ccccc1CNc1nc(-c2cc(-c3ccon3)n(Cc3ccccc3F)n2)ncc1F` [Compound I-288], in assay [2], the maximal effect (Emax) lay within 80 to 100% and the EC50 lay within 100 to 500 nM.

For the molecule `CC1(CC(=O)O)CCN(c2nc(-c3cc(-c4ccon4)n(Cc4ccccc4F)n3)ncc2F)CC1` [Compound I-289], in assay [2], the Emax lay in the range of 60 to 80% and the EC50 lay in the range of 100 to 500 nM.

For `O=C(O)C1(C2CCCCC2)CCN(c2nc(-c3cc(-c4ccon4)n(Cc4ccccc4F)n3)ncc2F)CC1` [Compound I-290], in assay [2], the Emax lay within 60 to 80% and the EC50 lay within 100 to 500 nM.

`O=C(O)C(CCNc1nc(-c2cc(-c3ccon3)n(Cc3ccccc3F)n2)ncc1F)c1ccccc1` (centres unmarked) [Compound I-292]: in assay [2], the Emax was 80 to 100% and the EC50 was in the range of 1 to 100 nM.

For the molecule `COC(=O)C1(N)CCN(c2nc(-c3cc(-c4ccon4)n(Cc4ccccc4F)n3)ncc2F)CC1` [Compound I-298], in assay [2], the Emax fell in the range of 60 to 80% and the half-maximal effective concentration (EC50) lay in the range of 100 to 500 nM.

With `NC1(C(=O)O)CCN(c2nc(-c3cc(-c4ccon4)n(Cc4ccccc4F)n3)ncc2F)CC1` [Compound I-299], in assay [2], the Emax is 40 to 60% and the EC50 is 1000 to 5000 nM.

Take `O=C(O)[C@@H]1CC(F)(F)CN1c1nc(-c2cc(-c3ccon3)n(Cc3ccccc3F)n2)ncc1F` [Compound I-301]: in assay [2], the Emax lay in the range of 60 to 80% and the EC50 was in the range of 1000 to 5000 nM.

`O=C(O)C12CC1CCCN2c1nc(-c2cc(-c3ccon3)n(Cc3ccccc3F)n2)ncc1F` (centres unmarked) [Compound I-308]: the EC50 in assay [1] was 0.101 to 1 µM.

Regarding `CN(c1nc(-c2cc(-c3ccon3)n(Cc3ccccc3F)n2)ncc1F)[C@@H]1CC[C@H](C(=O)O)C1` [Compound I-309], the EC50 in assay [1] was less than 0.1 µM.

In the case of `C[C@@H]1[C@H](C(=O)O)CCCN1c1nc(-c2cc(-c3ccon3)n(Cc3ccccc3F)n2)ncc1F` [Compound I-310], in assay [1], the EC50 is less than 0.1 µM.

`C[C@H]1[C@@H](C(=O)O)CCCN1c1nc(-c2cc(-c3ccon3)n(Cc3ccccc3F)n2)ncc1F` [Compound I-311]: in assay [1], the EC50 lay in the range of 0.101 to 1 µM.

For `O=C(O)C12CC1CN(c1nc(-c3cc(-c4ccon4)n(Cc4ccccc4F)n3)ncc1F)C2` (centres unmarked) [Compound I-312], in assay [1], the EC50 was in the range of 0.101 to 1 µM.

Turning to `C[C@@H]1CN(c2nc(-c3cc(-c4ccon4)n(Cc4ccccc4F)n3)ncc2F)C[C@@H]1C(=O)O` [Compound I-314], the EC50 in assay [1] was less than 0.1 µM.

In the case of `Oc1c(F)cc(CNc2nc(-c3cc(-c4ccon4)n(Cc4ccccc4F)n3)ncc2F)cc1F` [Compound I-317], in assay [1], the EC50 is less than 0.1 µM.

Turning to `OC[C@H]1CCN(c2nc(-c3cc(-c4ccon4)n(Cc4ccccc4F)n3)ncc2F)[C@@H](CO)C1` [Compound I-318], the EC50 in assay [1] was less than 0.1 µM.

As for `O=C(O)[C@H]1[C@@H](c2ccccc2)CCCN1c1nc(-c2cc(-c3ccon3)n(Cc3ccccc3F)n2)ncc1F` [Compound I-319], the EC50 in assay [1] is less than 0.1 µM.

With `CN(C[C@H](O)CO)c1nc(-c2cc(-c3ccon3)n(Cc3ccccc3F)n2)ncc1F` [Compound I-320], in assay [1], the half-maximal effective concentration (EC50) is less than 0.1 µM.

With `CN(C[C@@H](O)CO)c1nc(-c2cc(-c3ccon3)n(Cc3ccccc3F)n2)ncc1F` [Compound I-321], the 50% effective concentration (EC50) in assay [1] was less than 0.1 µM.

Regarding `OC[C@@H](O)CN(CC1CC1)c1nc(-c2cc(-c3ccon3)n(Cc3ccccc3F)n2)ncc1F` [Compound I-322], the EC50 in assay [1] is less than 0.1 µM.

Consider `CC(C)N(C[C@H](O)CO)c1nc(-c2cc(-c3ccon3)n(Cc3ccccc3F)n2)ncc1F` [Compound I-323], for which, in assay [1], the EC50 was 0.101 to 1 µM.

With `CC(C)(O)CNc1nc(-c2cc(-c3ccon3)n(Cc3ccccc3F)n2)ncc1F` [Compound I-325], the EC50 in assay [1] was less than 0.1 µM.

Regarding `O=C(Nc1ccnc(-c2cc(-c3ccon3)n(Cc3ccccc3F)n2)n1)[C@H](O)C(F)(F)F` [Compound I-326], the EC50 in assay [1] lay in the range of 0.101 to 1 µM.

Turning to `CCOc1c(Nc2ccnc(-c3cc(-c4ccon4)n(Cc4ccccc4F)n3)n2)c(=O)c1=O` [Compound I-327], in assay [1], the EC50 is greater than 1 µM.

In the case of `O=C(Nc1ccnc(-c2cc(-c3ccon3)n(Cc3ccccc3F)n2)n1)C1(C(F)(F)F)CC1` [Compound I-328], the EC50 in assay [1] is greater than 1 µM.

For `C[C@H]1CCCN(c2nc(-c3cc(-c4ccon4)n(Cc4ccccc4F)n3)ncc2F)[C@H]1C(=O)NS(=O)(=O)C1CC1` [Compound I-331], in assay [1], the EC50 lay within 0.101 to 1 µM.

For `C[C@H]1CCCN(c2nc(-c3cc(-c4ccon4)n(Cc4ccccc4F)n3)ncc2F)[C@@H]1C(=O)NS(=O)(=O)C1CC1` [Compound I-332], in assay [1], the EC50 is less than 0.1 µM.

For `C[C@H]1CCCN(c2ccnc(-c3cc(-c4ccon4)n(Cc4ccccc4F)n3)n2)[C@H]1C(=O)O` [Compound I-333], in assay [1], the EC50 is less than 0.1 µM.

As to `OCC(CO)(CO)Nc1nc(-c2cc(-c3ccon3)n(Cc3ccccc3F)n2)ncc1F` [Compound I-334], the half-maximal effective concentration (EC50) in assay [1] lay within 0.101 to 1 µM.
